From ChEMBL document CHEMBL4385632, “Synthesis of novel benzothiazole amides: Evaluation of PPAR activity and anti-proliferative effects in paraganglioma, pancreatic and colorectal cancer cell lines” (2019)
Calls of active or inactive are those of the source. No cut-off for these calls is given here.

Key:
[1] = biological target: T1, Peroxisome proliferator-activated receptor alpha (Homo sapiens) (UniProt Q07869); assay: Antagonist activity at GAL4-tagged human PPARalpha LBD expressed in human HepG2 cells assessed as inhibition of Wy14,643-induced receptor transactivation at 25 uM incubated for 20 hrs by luciferase reporter gene assay relative to control; format: cell-based
T1 sequence (whole entry): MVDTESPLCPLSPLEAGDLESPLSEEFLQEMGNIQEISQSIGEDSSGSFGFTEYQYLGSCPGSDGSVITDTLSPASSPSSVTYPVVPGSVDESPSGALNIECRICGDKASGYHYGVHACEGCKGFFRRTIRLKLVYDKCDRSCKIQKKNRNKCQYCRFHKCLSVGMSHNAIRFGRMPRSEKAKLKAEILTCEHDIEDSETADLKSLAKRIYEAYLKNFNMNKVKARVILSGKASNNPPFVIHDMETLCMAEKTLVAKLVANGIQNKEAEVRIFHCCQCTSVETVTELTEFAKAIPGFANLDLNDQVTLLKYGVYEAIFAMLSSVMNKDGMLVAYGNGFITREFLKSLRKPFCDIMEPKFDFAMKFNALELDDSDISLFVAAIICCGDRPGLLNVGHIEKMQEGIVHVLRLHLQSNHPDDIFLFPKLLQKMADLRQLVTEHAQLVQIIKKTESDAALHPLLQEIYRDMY

[2] = test system: ASPC1; assay: Cytotoxicity against human AsPC1 cells assessed as reduction in cell viability at 75 uM incubated for 72 hrs by MTT assay; format: functional; details: for inhibition at 75 µM: ASPC1, 72 h
[3] = (§1) Cytotoxicity against human PTJ86i cells assessed as reduction in cell viability at 75 uM incubated for 72 hrs by MTT assay; format: functional
[4] = biological target: T2, Peroxisome proliferator-activated receptor delta (Homo sapiens) (UniProt Q03181); assay: Antagonist activity at GAL4-tagged human PPARdelta LBD expressed in human HepG2 cells assessed as inhibition of L-165,041-induced receptor transactivation at 25 uM incubated for 20 hrs by luciferase reporter gene assay relative to control; format: cell-based
T2 sequence (whole entry): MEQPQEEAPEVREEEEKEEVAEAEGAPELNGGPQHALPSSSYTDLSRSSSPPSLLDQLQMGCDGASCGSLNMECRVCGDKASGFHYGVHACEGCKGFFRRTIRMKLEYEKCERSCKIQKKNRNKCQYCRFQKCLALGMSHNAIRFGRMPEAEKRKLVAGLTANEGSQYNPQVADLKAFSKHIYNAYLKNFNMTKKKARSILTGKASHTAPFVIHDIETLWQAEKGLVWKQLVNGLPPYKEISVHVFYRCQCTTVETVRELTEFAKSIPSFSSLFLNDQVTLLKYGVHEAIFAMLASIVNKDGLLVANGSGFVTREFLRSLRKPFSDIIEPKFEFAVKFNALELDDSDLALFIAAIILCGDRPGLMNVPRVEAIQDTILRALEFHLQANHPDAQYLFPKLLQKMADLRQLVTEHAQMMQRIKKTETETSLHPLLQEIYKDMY

[5] = test system: SW480; assay: Cytotoxicity against human SW480 cells assessed as reduction in cell viability at 75 uM incubated for 72 hrs by MTT assay; format: functional; details: for inhibition at 75 µM: SW480, 72 h
[6] = test system: HT-29; assay: Cytotoxicity against human HT-29 cells assessed as reduction in cell viability at 75 uM incubated for 72 hrs by MTT assay; format: functional; details: for inhibition at 75 µM: HT-29, 72 h
[7] = test system: Capan-2; assay: Cytotoxicity against human Capan2 cells assessed as reduction in cell viability at 75 uM incubated for 72 hrs by MTT assay; format: functional; details: for inhibition at 75 µM: Capan-2, 72 h
[8] = biological target: T3, Peroxisome proliferator-activated receptor gamma (Homo sapiens) (UniProt P37231); assay: Antagonist activity at GAL4-tagged human PPARgamma LBD expressed in human HepG2 cells assessed as inhibition of rosiglitazone-induced receptor transactivation at 25 uM incubated for 20 hrs by luciferase reporter gene assay relative to control; format: cell-based
T3 sequence (whole entry): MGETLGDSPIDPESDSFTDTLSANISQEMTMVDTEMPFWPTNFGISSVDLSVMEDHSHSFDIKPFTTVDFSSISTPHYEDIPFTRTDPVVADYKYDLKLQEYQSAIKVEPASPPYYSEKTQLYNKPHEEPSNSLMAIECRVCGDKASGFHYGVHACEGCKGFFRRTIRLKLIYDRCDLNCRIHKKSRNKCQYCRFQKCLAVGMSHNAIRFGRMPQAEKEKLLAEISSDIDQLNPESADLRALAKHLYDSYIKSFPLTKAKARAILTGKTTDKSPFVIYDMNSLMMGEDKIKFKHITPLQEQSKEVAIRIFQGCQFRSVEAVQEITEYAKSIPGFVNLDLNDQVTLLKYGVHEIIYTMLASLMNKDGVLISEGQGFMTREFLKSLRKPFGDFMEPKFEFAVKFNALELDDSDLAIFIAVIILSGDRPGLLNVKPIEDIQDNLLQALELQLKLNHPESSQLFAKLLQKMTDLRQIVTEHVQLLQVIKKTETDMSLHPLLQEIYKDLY

[9] = (§2) Cytotoxicity against human PTJ64i cells assessed as reduction in cell viability at 75 uM incubated for 72 hrs by MTT assay; format: functional
[10] = organism: Homo sapiens; assay: as §1; format: functional
[11] = organism: Homo sapiens; assay: as §2; format: functional
[12] = organism: Homo sapiens; assay: Cytotoxicity against human PTJ64i cells assessed as reduction in cell viability incubated for 72 hrs by MTT assay; format: functional, cell-based
[13] = Inhibition of colony formation in human PTJ86i cells assessed as plating efficiency at 24 uM incubated for 13 days by crystal violet staining based assay (Rvb=30.25%); format: functional; set-up: scale not given: the % may be the effect or the level left
[14] = Inhibition of colony formation in human PTJ64i cells assessed as plating efficiency at 24 uM incubated for 13 days by crystal violet staining based assay (Rvb=10.75%); format: functional; set-up: scale not given: the % may be the effect or the level left
[15] = organism: Homo sapiens; assay: Cytotoxicity against human PTJ86i cells assessed as reduction in cell viability incubated for 72 hrs by MTT assay; format: functional, cell-based
[16] = Inhibition of colony formation in human PTJ64i cells assessed as surviving fraction at 24 uM incubated for 13 days by crystal violet staining based assay (Rvb=100%); format: functional; details: 312 h, read-out: Survival
[17] = Inhibition of colony formation in human PTJ86i cells assessed as surviving fraction at 24 uM incubated for 13 days by crystal violet staining based assay (Rvb=100%); format: functional; details: 312 h, read-out: Survival

| Structure (SMILES) | %max [1] | %max [4] | %max [8] | inhibition at 75 µM [2] | inhibition at 75 µM [3] | inhibition at 75 µM [5] | inhibition at 75 µM [6] | inhibition at 75 µM [7] | inhibition at 75 µM [9] | also measured |
| --- | --- | --- | --- | --- | --- | --- | --- | --- | --- | --- |
| CC(NC(=O)C(Sc1nc2cc(Cl)ccc2s1)c1ccccc1)c1ccccc1 (stereo not given) | 45% | < 2% | < 2% | ≤ 50% | ≥ 50% | 60% | ≤ 50% | ≤ 50% | ≥ 50% | – |
| O=C(NCc1ccccc1)C(Sc1nc2cc(Cl)ccc2s1)c1ccccc1 (stereo not given) | 35% | < 2% | < 2% | ≤ 50% | ≥ 50% | ≤ 50% | ≤ 50% | ≤ 50% | ≥ 50% | – |
| CC(=O)Nc1ccc(NC(=O)C(Sc2nc3cc(Cl)ccc3s2)c2ccccc2)cc1 (stereo not given) | 22% | < 2% | < 2% | ≤ 50% | ≥ 50% | ≤ 50% | ≤ 50% | ≤ 50% | ≥ 50% | – |
| CCC(=O)NC[C@H](Cc1ccc(OCCc2nc(-c3ccccc3)oc2C)cc1)N/C(C)=C\C(=O)c1ccc(C(F)(F)F)cc1 | – | – | – | – | – | – | – | – | – | inhibition [2]: Active; inhibition [10]: Active; inhibition [5]: Active; inhibition [6]: Active; inhibition [7]: Active; inhibition [11]: Active |
| O=C(Nc1ccccc1)C(Sc1nc2cc(Cl)ccc2s1)c1ccccc1 (stereo not given) | 22% | < 2% | < 2% | ≤ 75% | > 90% | ≤ 68% | ≤ 68% | ≤ 75% | > 90% | inhibition [12]: Dose-dependent effect; Activity [13]: 5.5%; Activity [14]: 2.5%; inhibition [15]: Dose-dependent effect; viability at 24 µM [16]: 23.3%; viability at 24 µM [17]: 18.2% |

More lines, main results first:

| %max [1] | %max [4] | %max [8] | Structure (SMILES) | inhibition at 75 µM [2] | inhibition at 75 µM [3] | inhibition at 75 µM [5] | inhibition at 75 µM [6] | inhibition at 75 µM [7] | inhibition at 75 µM [9] | also measured |
| --- | --- | --- | --- | --- | --- | --- | --- | --- | --- | --- |
| 46% | < 2% | < 2% | O=C(NCCCc1ccccc1)C(Sc1nc2cc(Cl)ccc2s1)c1ccccc1 (stereo not given) | ≤ 50% | ≥ 50% | ≤ 63% | ≤ 63% | ≤ 50% | ≥ 50% | – |
| 31% | < 2% | < 2% | CCCCNC(=O)C(Sc1nc2cc(Cl)ccc2s1)c1ccccc1 (stereo not given) | ≤ 50% | ≥ 50% | ≤ 50% | ≤ 50% | ≤ 50% | ≥ 50% | – |
| 57% | < 2% | < 2% | O=C(NCCc1ccccc1)C(Sc1nc2cc(Cl)ccc2s1)c1ccccc1 (stereo not given) | ≤ 74% | ≥ 50% | ≤ 50% | ≤ 50% | ≤ 74% | ≥ 50% | – |
